Experimental data as given in patent USRE46558E1, “Compositions and methods to treat diseases characterized by cellular proliferation and angiogenesis” (Paloma Pharmaceuticals, Inc., priority 2005, dated 2017).
Like-named read-outs stand apart in the source and are kept apart here.

Tests used:
[1] = biological target: T1, human estrogen receptor beta (Homo sapiens, UniProt Q92731); experiment: ER binding assay, [3H]estradiol competition, ERb; settings: 0.5 nM [3H]estradiol, 4° C. overnight; na = no activity
T1 construct: made in house; host or cells: rabbit reticulocyte lysate, coupled in vitro transcription-translation (Promega TNT kit)
Excerpt: ER Binding Assay. Derivatives which bind and transduce a signal through estrogen receptors would not be considered a positive activity as such an activity could enhance cancer growth as well as induce angiogenesis. Derivatives which either have little or no binding to estrogen receptors (“ER”) would be one desired activity. […] Human cDNAs encoding ERa and ERb were used as templates to express receptor proteins in vitro. The proteins were produced with rabbit reticulocyte lysates as supplied by Promega (TNT kit) that couples transcription and translation in a single reaction. The amount of template used in each reaction was determined empirically and expression was monitored in parallel reactions where [35S]methionine was incorporated into the receptor followed by gel electrophoresis and exposure to film. Binding reactions were carried out in […] final volumes in TEG buffer (10 mM tris, pH 7.5, 1.5 mM EDTA, 10% glycerol). […] The reactions were incubated at 4° C. overnight and bound E2 was quantified by adding […] dextran-coated charcoal. […] The maximum binding was determined by competing bound E2 with only the ethanol vehicle. […] Values for percent inhibition were calculated based on the maximal E2 binding. The data were plotted and Ki values calculated using the Prism Software. […]

[2] = system: MCF-7 breast cancer cells; experiment: Cancer cell line proliferation, breast; assay type: cell-based; set-up: dose or concentration left out as unconfirmed; settings: Homo sapiens, MCF7
Excerpt: (§1) Cancer Cell Lines. Measurement of the inhibition of tumor cell growth is one measure of anti-cancer activity. Two human cancer cell lines were used to assess the effects of SG angiogenic inhibitors on the proliferation of these cells. The cell lines were MCF-7 breast cancer cells and the colon carcinoma cell line, HCT-116. All cell lines were obtained from Americans Type Tissue Culture (Manassas, Va.) and maintained in their respective media as described by the supplier. The proliferation studies were carried out essentially as described for the proliferating endothelial cells.

HUVEC quiescent = experiment: Non-proliferating (quiescent) HUVEC assay; assay type: cell-based; set-up: dose or concentration left out as unconfirmed; settings: Homo sapiens, 48 h, read-out: HUVECq % inhibition
Excerpt: (§2) Anti-tumor (anti-proliferative for cancer cells), anti-angiogenic activity (anti-proliferative for endothelial cells) measured in vitro as inhibition of proliferation binding to estrogen receptor alpha and beta HUVEC Proliferation. Inhibition of the proliferation of human umbilical vein endothelial cells, HUVECs, is shown as one measure of anti-angiogenic activity. HUVECS and the required media complements were purchased from Cascade Biologics (Portland, Oreg.) and the growth and maintenance of the cultures was as described by the manufacturer. The proliferation assay was carried out by seeding the HUVECs in 96-well plates at a density of 1,000 cells/well in complete medium. Following a 24 h plating period, the cells were starved for 24 h in 0.5% serum before being treated with SG (“Signal Gene” now “Palomid”) angiogenic inhibitors in the presence of 10 ng/ml b-FGF or dosing ranging presence of either b-FGF or VEGF in complete medium. After 48 h, cell number was determined using a calorimetric method as described by the supplier (Promega Corp., Madison, Wis.). The results were expressed as the percentage of the maximal b-FGF or VEGF response in the absence of angiogenic inhibitors. Non-proliferating endothelial cells were assayed by growing HUVECs to quiescence in 96-well plates and treating with angiogenic inhibitors for 48 h. Initially, 5,000 cells/well were seeded and confluence was achieved the next day. The plates were incubated another 24 h to ensure growth arrest before treatment with angiogenic inhibitors. Cell number was determined as outlined above.

[3] = system: human umbilical vein endothelial cells, HUVECs (proliferating); experiment: HUVEC proliferation assay (proliferating, b-FGF or VEGF stimulated); assay type: cell-based; set-up: inhibition: dose or concentration left out as unconfirmed; settings: for inhibition: Homo sapiens, proliferating HUVEC, 48 h, read-out: HUVECp % inhibition
Excerpt: as §2

[4] = system: colon carcinoma cell line, HCT-116; experiment: Cancer cell line proliferation, colon; assay type: cell-based; set-up: dose or concentration left out as unconfirmed; settings: Homo sapiens
Excerpt: as §1

[5] = % of maximal b-FGF or VEGF response

T1 sequence (Q92731 whole entry): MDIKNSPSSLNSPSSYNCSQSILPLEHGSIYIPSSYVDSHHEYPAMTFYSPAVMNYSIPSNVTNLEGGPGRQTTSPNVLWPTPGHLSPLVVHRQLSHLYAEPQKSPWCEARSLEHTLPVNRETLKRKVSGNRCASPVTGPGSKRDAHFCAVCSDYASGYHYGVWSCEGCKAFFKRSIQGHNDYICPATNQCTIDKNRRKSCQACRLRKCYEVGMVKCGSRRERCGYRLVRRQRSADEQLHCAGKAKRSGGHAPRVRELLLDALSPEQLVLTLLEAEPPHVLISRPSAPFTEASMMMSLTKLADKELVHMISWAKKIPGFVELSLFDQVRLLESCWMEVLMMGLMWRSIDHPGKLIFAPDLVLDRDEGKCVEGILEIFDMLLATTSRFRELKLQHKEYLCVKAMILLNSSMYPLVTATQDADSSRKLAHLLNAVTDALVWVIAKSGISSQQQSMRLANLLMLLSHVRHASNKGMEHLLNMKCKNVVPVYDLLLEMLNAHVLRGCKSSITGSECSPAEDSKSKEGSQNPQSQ

hERb % binding [1]	Compound	inhibition [2]	inhibition (HUVEC quiescent)	inhibition [3, 5]	inhibition [4]	inhibition [3]	inhibition of bFGF-stimulated endothelial cell proliferation ([3]; FIG. 1A, bFGF-stimulated)	inhibition of VEGF-stimulated endothelial cell proliferation ([3]; FIG. 1B, VEGF-stimulated)
37%	COc1cc2c(cc1OCCc1ccccc1)oc(=O)c1cc(C(C)=O)ccc12 [Palomid 568]	< 10%	14%	78%	–	–	–	–
–	COc1ccccc1COc1cc2oc(=O)c3cc(C(C)O)ccc3c2cc1OC (stereo not shown) [Palomid 545]	17%	22%	100%	21%	32%	–	–
–	COc1cc2c(cc1OCc1ccc(C)cc1)oc(=O)c1cc(C(C)=O)ccc12 [Palomid 559]	17%	35%	96%	–	72%	–	–
–	COc1cc(COc2cc3oc(=O)c4cc(C(C)=O)ccc4c3cc2OC)cc(OC)c1 [Palomid 546]	13%	23%	100%	–	18%	–	–
–	CCc1ccc2c(c1)c(=O)oc1cc(OCc3ccc(C(=O)c4ccccc4)cc3)c(OC)cc12 [Palomid 574]	–	29%	74%	24%	13%	–	–
–	CCc1ccc2c(c1)c(=O)oc1cc(OCc3ccc(OC)cc3)c(OC)cc12 [Palomid 550]	28%	14%	77%	< 10%	–	–	–
–	CCc1ccc2c(c1)c(=O)oc1cc(OCc3ccccc3OC)c(OC)cc12 [Palomid 551]	25%	–	62%	–	–	–	–
–	COc1ccc(COc2cc3oc(=O)c4cc(C(C)O)ccc4c3cc2OC)cc1 (stereo not shown) [Palomid 529]	32%	31%	113%	20%	65%	inhibition	inhibition
–	CCc1ccc2c(c1)c(=O)oc1cc(OCc3ccc(Br)cc3)c(OC)cc12 [Palomid 560]	–	–	53%	–	–	–	–
–	COc1cc2c(cc1OCc1ccccc1)oc(=O)c1cc(C(C)O)ccc12 (stereo not shown) [Palomid 393]	11%	21%	71%	26%	–	–	–
–	COc1cc2c(cc1OCc1ccc(C)cc1)oc(=O)c1cc(C(C)O)ccc12 (stereo not shown) [Palomid 575]	31%	33%	104%	10%	41%	–	–
–	COc1cc(COc2cc3oc(=O)c4cc(C(C)O)ccc4c3cc2OC)cc(OC)c1 (stereo not shown) [Palomid 547]	35%	25%	106%	17%	42%	–	–
–	CCc1ccc2c(c1)c(=O)oc1cc(OCc3ccc(C(=O)OC)cc3)c(OC)cc12 [Palomid 573]	–	< 10%	145%	< 10%	–	–	–
